Assay results published in the supplement of paper PMC10307832.

Assays:
Experiment in all cases: relative viability (nuclei count vs DMSO), 5 days (fraction); higher = more cells survive
[1] = tested on: PC-3 [JPC-3]
Outline: (§1)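 Lung cancer cell lines were pin-tool dosed in 1536-well plates on the day after seeding, with either a lone drug or a fixed anchor-drug dose plus five library-drug doses (not always all listed) in √10 steps. Nuclei were counted on 4× images after 5 days. Relative viability is the ratio of treated-well to vehicle-well nuclei counts, with each value a median of duplicate plates.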

[2] = tested on: UMC-11
Outline: as §1

[3] = tested on: LK-2
Outline: as §1

[4] = tested on: LU99A
Outline: as §1

[5] = tested on: SK-LU-1
Outline: as §1

[6] = tested on: NCI-H2228
Outline: as §1

[7] = tested on: LCLC-97TM1
Outline: as §1

[8] = tested on: NCI-H1993
Outline: as §1

[9] = tested on: HCC-827
Outline: as §1

[10] = tested on: NCI-H1650
Outline: as §1

[11] = tested on: LXF-289
Outline: as §1

[12] = tested on: NCI-H2170
Outline: as §1

[13] = tested on: EPLC-272H
Outline: as §1

[14] = tested on: ChaGo-K-1
Outline: as §1

[15] = tested on: EKVX
Outline: as §1

[16] = tested on: SW 1573
Outline: as §1

[17] = tested on: NCI-H2405
Outline: as §1

[18] = tested on: NCI-H522
Outline: as §1

[19] = tested on: HOP-62
Outline: as §1

[20] = tested on: NCI-H441
Outline: as §1

[21] = tested on: H3255
Outline: as §1

[22] = tested on: NCI-H1355
Outline: as §1

[23] = tested on: NCI-H3122
Outline: as §1

With `CCNC(=O)c1noc(-c2cc(C(C)C)c(O)cc2O)c1-c1ccc(CN2CCOCC2)cc1` [Luminespib] + O=C(c1cc(Cc2n[nH]c(=O)c3ccccc23)ccc1F)N1CCN(C(=O)C2CC2)CC1 [Olaparib] (partner 8 µM) the relative viability ([1]; first compound 0.002 µM) was 1.09, the relative viability ([1]; first compound 0.006325 µM) was 1.04 and the relative viability ([1]; first compound 0.02 µM) was 0.863. The relative viability ([1]; first compound 0.06325 µM) was 0.392, the relative viability ([1]; first compound 0.2 µM) was 0.398 and the relative viability ([2]; first compound 0.002 µM) was 0.391. For the same compound, the relative viability ([2]; first compound 0.006325 µM) was 0.403, the relative viability ([2]; first compound 0.02 µM) was 0.401 and the relative viability ([2]; first compound 0.06325 µM) was 0.205. It also gave a relative viability ([2]; first compound 0.2 µM) of 0.149, a relative viability ([3]; first compound 0.002 µM) of 0.884 and a relative viability ([3]; first compound 0.006325 µM) of 0.89. The relative viability ([3]; first compound 0.02 µM) was 0.519, the relative viability ([3]; first compound 0.06325 µM) was 0.11 and the relative viability ([3]; first compound 0.2 µM) was 0.114. It also gave a relative viability ([4]; first compound 0.002 µM) of 0.294, a relative viability ([4]; first compound 0.006325 µM) of 0.236 and a relative viability ([4]; first compound 0.02 µM) of 0.226. It also gave a relative viability ([4]; first compound 0.06325 µM) of 0.174, a relative viability ([4]; first compound 0.2 µM) of 0.138 and a relative viability ([5]; first compound 0.002 µM) of 0.538. It also gave a relative viability ([5]; first compound 0.006325 µM) of 0.4, a relative viability ([5]; first compound 0.02 µM) of 0.475 and a relative viability ([5]; first compound 0.06325 µM) of 0.187. The relative viability ([5]; first compound 0.2 µM) was 0.179, the relative viability ([6]; first compound 0.002 µM) was 0.595 and the relative viability ([6]; first compound 0.006325 µM) was 0.638. The relative viability ([6]; first compound 0.02 µM) was 0.326, the relative viability ([6]; first compound 0.06325 µM) was 0.128 and the relative viability ([6]; first compound 0.2 µM) was 0.142. For the same compound, the relative viability ([7]; first compound 0.002 µM) was 0.421, the relative viability ([7]; first compound 0.006325 µM) was 0.5 and the relative viability ([7]; first compound 0.06325 µM) was 0.401. For the same compound, the relative viability ([7]; first compound 0.2 µM) was 0.257, the relative viability ([8]; first compound 0.002 µM) was 1.09 and the relative viability ([8]; first compound 0.006325 µM) was 0.953. It also gave a relative viability ([8]; first compound 0.02 µM) of 0.617, a relative viability ([8]; first compound 0.06325 µM) of 0.903 and a relative viability ([8]; first compound 0.2 µM) of 0.39. The relative viability ([9]; first compound 0.002 µM) was 0.595, the relative viability ([9]; first compound 0.006325 µM) was 0.64 and the relative viability ([9]; first compound 0.02 µM) was 0.537. It also gave a relative viability ([9]; first compound 0.06325 µM) of 0.143, a relative viability ([9]; first compound 0.2 µM) of 0.167 and a relative viability ([10]; first compound 0.002 µM) of 0.852. For the same compound, the relative viability ([10]; first compound 0.006325 µM) was 0.786, the relative viability ([10]; first compound 0.02 µM) was 0.686 and the relative viability ([10]; first compound 0.06325 µM) was 0.142. For the same compound, the relative viability ([10]; first compound 0.2 µM) was 0.137, the relative viability ([11]; first compound 0.002 µM) was 1.01 and the relative viability ([11]; first compound 0.006325 µM) was 1.03. It also gave a relative viability ([11]; first compound 0.02 µM) of 1.2, a relative viability ([11]; first compound 0.06325 µM) of 0.99 and a relative viability ([11]; first compound 0.2 µM) of 0.805. It also gave a relative viability ([12]; first compound 0.002 µM) of 0.659, a relative viability ([12]; first compound 0.006325 µM) of 0.539 and a relative viability ([12]; first compound 0.06325 µM) of 0.468. The relative viability ([12]; first compound 0.2 µM) was 0.16, the relative viability ([13]; first compound 0.002 µM) was 0.812 and the relative viability ([13]; first compound 0.006325 µM) was 0.702. For the same compound, the relative viability ([13]; first compound 0.02 µM) was 0.709, the relative viability ([13]; first compound 0.06325 µM) was 0.0637 and the relative viability ([13]; first compound 0.2 µM) was 0.082. For the same compound, the relative viability ([14]; first compound 0.002 µM) was 0.42, the relative viability ([14]; first compound 0.006325 µM) was 0.407 and the relative viability ([14]; first compound 0.02 µM) was 0.439. It also gave a relative viability ([14]; first compound 0.06325 µM) of 0.452, a relative viability ([14]; first compound 0.2 µM) of 0.36 and a relative viability ([15]; first compound 0.002 µM) of 0.881. For the same compound, the relative viability ([15]; first compound 0.006325 µM) was 0.881, the relative viability ([15]; first compound 0.02 µM) was 0.651 and the relative viability ([15]; first compound 0.06325 µM) was 0.541. It also gave a relative viability ([15]; first compound 0.2 µM) of 0.155, a relative viability ([16]; first compound 0.002 µM) of 0.445 and a relative viability ([16]; first compound 0.006325 µM) of 0.4. It also gave a relative viability ([16]; first compound 0.02 µM) of 0.165, a relative viability ([16]; first compound 0.06325 µM) of 0.101 and a relative viability ([16]; first compound 0.2 µM) of 0.0793. For the same compound, the relative viability ([17]; first compound 0.002 µM) was 0.948, the relative viability ([17]; first compound 0.02 µM) was 0.813 and the relative viability ([17]; first compound 0.06325 µM) was 0.181. It also gave a relative viability ([17]; first compound 0.2 µM) of 0.182, a relative viability ([18]; first compound 0.002 µM) of 0.757 and a relative viability ([18]; first compound 0.006325 µM) of 0.61. It also gave a relative viability ([18]; first compound 0.02 µM) of 0.624, a relative viability ([18]; first compound 0.06325 µM) of 0.437 and a relative viability ([18]; first compound 0.2 µM) of 0.4. It also gave a relative viability ([19]; first compound 0.002 µM) of 0.533, a relative viability ([19]; first compound 0.006325 µM) of 0.453 and a relative viability ([19]; first compound 0.02 µM) of 0.723. It also gave a relative viability ([19]; first compound 0.06325 µM) of 0.0994, a relative viability ([19]; first compound 0.2 µM) of 0.138 and a relative viability ([20]; first compound 0.002 µM) of 0.524. For the same compound, the relative viability ([20]; first compound 0.006325 µM) was 0.569, the relative viability ([20]; first compound 0.02 µM) was 0.714 and the relative viability ([20]; first compound 0.06325 µM) was 0.119. It also gave a relative viability ([20]; first compound 0.2 µM) of 0.117, a relative viability ([21]; first compound 0.002 µM) of 0.59 and a relative viability ([21]; first compound 0.006325 µM) of 0.521. It also gave a relative viability ([21]; first compound 0.02 µM) of 0.563, a relative viability ([21]; first compound 0.06325 µM) of 0.337 and a relative viability ([21]; first compound 0.2 µM) of 0.253. It also gave a relative viability ([22]; first compound 0.002 µM) of 0.757, a relative viability ([22]; first compound 0.006325 µM) of 0.695 and a relative viability ([22]; first compound 0.02 µM) of 0.611. It also gave a relative viability ([22]; first compound 0.06325 µM) of 0.188, a relative viability ([22]; first compound 0.2 µM) of 0.149 and a relative viability ([23]; first compound 0.002 µM) of 0.626. The relative viability ([23]; first compound 0.006325 µM) was 0.567, the relative viability ([23]; first compound 0.02 µM) was 0.68 and the relative viability ([23]; first compound 0.06325 µM) was 0.56. For the same compound, the relative viability ([23]; first compound 0.2 µM) was 0.646.
